Reference: a compilation of properties of binary mixtures (doi:10.1039/b819795b)

Experiment: xn = mol fraction of the nth substance listed
Settings: 101 kPa

CCCCCCCC[n+]1ccn(C)c1.F[P-](F)(F)(F)(F)F + CC(C)O
speed of sound [m/s]
Settings	293.15 K	298.15 K	303.15 K
x1 = 0.0004	1156	1140	1121
x1 = 0.0009	1157	1140	1122
x1 = 0.0014	1157	–	1122
x1 = 0.0024	1158	1141	1123
x1 = 0.003	1158	1141	1123
x1 = 0.0053	–	1142	1125
x1 = 0.0098	–	–	1128
x2 = 0	1424	1408	1393
x2 = 0.0069	–	1407	1393
x2 = 0.0965	1412	1397	1384
x2 = 0.2012	1395	1382	1368
x2 = 0.304	1379	1366	–
x2 = 0.4009	1364	1351	1339
x2 = 0.4943	1340	–	–
x2 = 0.5989	1310	1296	–
x2 = 0.6487	–	1279	1267
x2 = 0.6964	–	1261	1252
x2 = 0.7469	–	–	1235

CCCCCCCC[n+]1ccn(C)c1.F[P-](F)(F)(F)(F)F + CCCCCC
speed of sound [m/s]
Settings	x2 = 0	x2 = 0.0468	x2 = 0.0712	x2 = 0.0893	x2 = 0.1268
293.15 K	1424	1408	1401	1394	–
298.15 K	1408	1393	1385	–	1364
303.15 K	1393	1378	–	1364	1349

CCCCCCCC[n+]1ccn(C)c1.F[P-](F)(F)(F)(F)F + CCCCCCC
speed of sound [m/s]
Settings	x2 = 0	x2 = 0.0074	x2 = 0.0516	x2 = 0.0803
293.15 K	1424	1421	1406	–
298.15 K	1408	–	1391	1381
303.15 K	–	1391	–	1366

CC(C)O + CCCCCCCC[n+]1ccn(C)c1.F[P-](F)(F)(F)(F)F
Settings	speed of sound [m/s]
293.15 K, x1 = 1	1156

CCCCCC + CCCCCCCC[n+]1ccn(C)c1.F[P-](F)(F)(F)(F)F
x1 = 1
Settings	speed of sound [m/s]
293.15 K	1100
298.15 K	1078

CCCCCCC + CCCCCCCC[n+]1ccn(C)c1.F[P-](F)(F)(F)(F)F
x1 = 1
Settings	speed of sound [m/s]
293.15 K	1153
298.15 K	1131
303.15 K	1110
